Source: patent US9266853B2, “Orally available viridiofungin derivative possessing anti-HCV activity” (Chugai Seiyaku Kabushiki Kaisha, priority 2012, dated 2016)

What was measured:
[1] = test system: firefly luciferase HCV replicon cells (Huh3-1); test: Replicon assay (firefly luciferase HCV replicon cells); type: cell-based, Hepatitis C virus; settings: for IC50: Hepatitis C virus, 72 h, Huh3-1 replicon cells, 3 days culture, luciferase readout, read-out: Anti-replicon Activity (IC50); for IC50 of antireplicon activity converted to: unit converted assuming liver specific gravity 1 g=1 mL (FIGS. 1 to 3)
Description: As a reporter gene, for example, a gene into which a luciferase gene derived from a firefly is introduced can be used. Specifically, according to the method of Krieger et al. (N. Krieger et al., J. Virology: 75, 4614-24, 2001), a firefly luciferase gene is introduced, in a form fused with a neomycin-resistant gene, immediately downstream of an internal ribosome entry site (IRES) of the HCV gene. After synthesizing the RNA in vitro, it is introduced into suitable cells by, for example, electroporation to obtain firefly luciferase HCV replicon cells. These cells are seeded in wells of 96-well plates, to which a diluted test substance is added, and cultured for several days. The substrate is then added, and the luminescence is measured with a plate reader.
According to the method of Krieger et al. (N. Krieger et al., J. Virology: 75, 4614-24, 2001), a firefly luciferase gene was introduced, in a form fused with a neomycin-resistant gene, immediately downstream of an internal ribosome entry site (TRES) of the HCV gene. After synthesizing the RNA in vitro, it was introduced into Huh7 cells by electroporation and the cells were isolated as G418-resistant clones.
After culturing, the white plates were used for the replicon assay with Steady-Glo Luciferase Assay System (Promega cat. No. E2520). More specifically, 100 μL per well of the reagent was added, it was mixed 3-4 times by pipetting and allowed to stand for 5 minutes, and subsequently the luminescence was measured with a plate reader (EnVision™ 2103 Multilabel Reader).

[2] = Cytotoxicity test (WST-8); type: cell-based; settings: human, firefly luciferase HCV replicon cells (Huh3-1); Huh3-1 replicon cells, 3 days culture, Cell counting kit-8; read-out: Cytotoxicity WST8 (IC50)
Protocol: The firefly luciferase HCV replicon cells (Huh3-1) were suspended in Dulbecco's MEM (Gibco cat. No. 10,569-010) containing 5% fetal bovine serum (Hyclone cat. No. SH30071.03), seeded at 4500 cells/90 μL/well in 96-well plates, and cultured overnight in 5% CO2 at 37° C. After 20 hours, 10 μL per well of compounds prepared at a concentration 10 times the final concentration were added, and they were further cultured for 3 days.
Two series of assay plates, one series of white plates and another series of clear plates, were prepared and used for the assay.
Clear plates were used for a cytotoxicity test (WST-8). Cytotoxicity was measured using Cell counting kit-8 (Dojindo cat. No. CK04). More specifically, 100 μL of Cell counting kit-8 diluted 10-fold from the stock solution with PBS (SIGMA cat. No. D8537) was added to each well in the aforementioned clear plates from which medium was removed and the plates were incubated at 37° C. for 30 to 60 minutes. Absorbance was measured at a wavelength of 460 nm and a control wavelength of 590 nm by a plate reader (EnVision™ 2103 Multilabel Reader). All values were expressed as differences from the background which was measured with neither cells nor drug and IC50 (50% inhibitory concentration) values of drugs were calculated based on the value when no drug was added defined as 0% inhibition.

CYP3A4 = CYP3A4 (Homo sapiens (Human), UniProt P08684); test: biochemical; type: in vitro ADME; settings: for IC50: human liver microsomes, midazolam 0.5 μmol/L; for CYP Inhibition Time Dependent (TDI) (untreated/Pre-incubation), CYP3A4: microsomes
Protocol: (§1) <Incubation Mixture> • 100 mM phosphate buffer (pH 7.4) • 0.1 mg/mL of pooled human liver microsomes (male and female mixture, a pool of 50 donors) <NADPH Aqueous Solution> • 10 mM NADPH (final concentration 1 mM NADPH) <Measurement of Metabolite>
Warfarin was used as internal standard (IS).
To a 96 deep well plate was added 2.5 μL, of the test substance solution (×200 concentration), 442.5 μL of Incubation Mixture, and 5 μL of the substrate solution, and the solution was mixed and warmed to 37° C. for 5 minutes. To this incubation solution 50 μL of 10 mM NADPH was added to start the reaction, and incubated at 37° C. for 5 minutes. After the incubation, 100 μL of the Incubation Mixture was removed, added to 150 μL of isopropanol containing IS and mixed. […] The filtrate was used for LC-MS/MS analysis.
To a 96 deep well plate was added 2.5 μL of the test substance solution (×200 concentration), and 442.5 μL of Incubation Mixture, and the solution was mixed and warmed to 37° C. for 5 minutes. To this incubation solution 50 μL of 10 mM NADPH was added and preincubated at 37° C. for 30 minutes. […] After the reaction, 100 μL of the Incubation Mixture was removed, added to 150 μL of isopropanol containing IS and mixed. […] The filtrate was used for LC-MS/MS analysis.
(§2) Based on the metabolite production of the DMSO control group defined as 100, percent inhibitions of the metabolite production in the test substance group were determined, and inhibition curves were plotted at 5 concentrations. The test substance concentration showing 50% inhibition (IC50) was determined from the fitting curve of the inhibition curve.

CYP2C9 = CYP2C9 (Homo sapiens (Human), UniProt P11712); test: biochemical; settings: for IC50: human liver microsomes, diclofenac 0.2 μmol/L; for TDI Ratio, CYP2C9: microsomes
Protocol: Tests were carried out according to the following experiment method.
as §1
After incubation, the concentrations of the produced metabolites were measured using LC-MS/MS (API4000 or 5500QTRAP). Warfarin was used as internal standard (IS). The concentration was calculated using a standard curve created using a metabolite standard solution.
To a 96 deep well plate was added 2.5 μL, of the test substance solution (×200 concentration), 442.5 μL of Incubation Mixture, and 5 μL of the substrate solution, and the solution was mixed and warmed to 37° C. for 5 minutes. To this incubation solution 50 μL of 10 mM NADPH was added to start the reaction, and incubated at 37° C. for 5 minutes. After the incubation, 100 μL of the Incubation Mixture was removed, added to 150 μL of isopropanol containing IS and mixed. This mixture was transferred onto a multi-screen filter, centrifuged at 500×g at 4° C. for 10 minutes. The filtrate was used for LC-MS/MS analysis.
To a 96 deep well plate was added 2.5 μL of the test substance solution (×200 concentration), and 442.5 μL of Incubation Mixture, and the solution was mixed and warmed to 37° C. for 5 minutes. To this incubation solution 50 μL of 10 mM NADPH was added and preincubated at 37° C. for 30 minutes. After the preincubation, 5 μL of the substrate solution was added and the solution was mixed and further incubated at 37° C. for 5 minutes for the reaction. After the reaction, 100 μL of the Incubation Mixture was removed, added to 150 μL of isopropanol containing IS and mixed. This mixture was transferred onto a multi-screen filter, centrifuged at 500×g at 4° C. for 10 minutes. The filtrate was used for LC-MS/MS analysis.
as §2
Time dependent inhibition (TDI) was calculated as a ratio of dividing IC50 of the sample without preincubation treatment by the IC50 value measured after the preincubation treatment.

[3] = Rat PK test (liver concentrations of active metabolites after oral prodrug); type: in vivo, Wistar rat
Protocol: The test was carried out according to the following protocol. • Animal: […] (Method of Analysis) Using LC-MS/MS (API 4000), standard curves for standard compounds were prepared, and the concentrations of the active metabolites No. 5514403 and No. 5526064 at the data points were calculated.

[4] = CYP3A4 (IC50 μM) Pre-incubation, 30 min preincubation with NADPH
[5] = CYP3A4 (IC50 μM) untreated, without preincubation
[6] = CYP2C9 (IC50 μM) Pre-incubation, 30 min preincubation with NADPH
[7] = CYP2C9 (IC50 μM) untreated, without preincubation
[8] = rat liver, 24 hours after dosing, prodrug p.o. 30 mg/kg once a day, 7 days
[9] = rat liver, prodrug p.o. 30 mg/kg once a day, 7 days

Sequence of CYP3A4 (P08684 whole entry): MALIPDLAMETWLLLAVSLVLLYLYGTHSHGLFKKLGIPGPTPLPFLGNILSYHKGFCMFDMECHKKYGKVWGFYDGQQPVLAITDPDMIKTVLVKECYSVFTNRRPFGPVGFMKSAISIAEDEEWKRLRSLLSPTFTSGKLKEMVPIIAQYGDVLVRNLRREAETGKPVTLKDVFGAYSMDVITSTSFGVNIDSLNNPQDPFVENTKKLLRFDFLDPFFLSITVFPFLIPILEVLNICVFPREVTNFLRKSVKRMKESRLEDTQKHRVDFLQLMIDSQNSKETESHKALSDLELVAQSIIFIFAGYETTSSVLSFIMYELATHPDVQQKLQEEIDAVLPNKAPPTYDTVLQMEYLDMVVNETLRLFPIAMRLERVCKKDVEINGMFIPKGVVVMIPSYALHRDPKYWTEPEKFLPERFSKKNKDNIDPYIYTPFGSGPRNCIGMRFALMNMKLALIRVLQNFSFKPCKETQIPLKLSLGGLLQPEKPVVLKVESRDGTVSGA
Sequence of CYP2C9 (P11712 whole entry): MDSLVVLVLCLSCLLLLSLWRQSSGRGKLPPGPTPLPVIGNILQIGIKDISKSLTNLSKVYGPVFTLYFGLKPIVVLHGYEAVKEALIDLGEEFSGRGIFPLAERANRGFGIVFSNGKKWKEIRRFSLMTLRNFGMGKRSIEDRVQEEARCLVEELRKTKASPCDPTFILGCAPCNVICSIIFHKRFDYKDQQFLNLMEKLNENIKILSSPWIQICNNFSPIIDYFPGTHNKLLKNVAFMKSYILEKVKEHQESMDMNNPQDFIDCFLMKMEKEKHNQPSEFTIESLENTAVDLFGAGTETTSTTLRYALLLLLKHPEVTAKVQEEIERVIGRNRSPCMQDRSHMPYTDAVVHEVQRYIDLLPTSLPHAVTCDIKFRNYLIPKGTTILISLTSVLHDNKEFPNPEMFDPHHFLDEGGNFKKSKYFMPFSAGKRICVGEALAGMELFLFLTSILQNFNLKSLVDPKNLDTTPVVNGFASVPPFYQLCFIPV

Row | SMILES | IC50 [1] [µM] | IC50 of antireplicon activity converted to [1] [ng/g] | IC50 at 3 days [2] [µM] | IC50 (CYP3A4; [4]) [µM] | IC50 (CYP3A4; [5]) [µM] | CYP Inhibition Time Dependent (TDI) (untreated/Pre-incubation), CYP3A4 (CYP3A4) | IC50 (CYP2C9; [6]) [µM] | IC50 (CYP2C9; [7]) [µM] | TDI Ratio, CYP2C9 (CYP2C9) | concentration of active compound No. 5514403 in the liver [3, 8] [ng/g] | concentration of active metabolite No. 5526064 in the liver [3, 8] [ng/g] | exposure of the liver to the active drugs ([3]; rat, p.o., in comparison with No. 6809532 and No. 6811559) | presence of the active compound No. 5514403 in the liver [3, 9]
1 | CCCCCCCC(F)(F)CCCCCC/C=C/[C@H](C(=O)N[C@@H](Cc1ccc(OCCCC)cc1)C(=O)OC)[C@@](O)(CCOC)C(=O)O [No. 5514403, (E)-(2S,3S)-3-[(S)-2-(4-butoxy-phenyl)-1-methoxycarbonyl-ethylcarbamoyl]-12,12-difluoro-2-hydroxy-2-(2-methoxy-ethyl)-nonadec-4-enoic acid] | 0.0006 | 0.48 | > 1 | 11.9 | 23.8 | 1.98 | 19.6 | 7.7 | 0.39 | – | – | – | –
2 | CCCCCCCC(F)(F)CCCCCC/C=C/[C@H](C(=O)N[C@@H](Cc1ccc(OCCCC)cc1)C(=O)O)[C@@](O)(CCOC)C(=O)O [No. 5526064, (E)-(2S,3S)-3-[(S)-2-(4-butoxy-phenyl)-1-carboxy-ethylcarbamoyl]-12,12-difluoro-2-hydroxy-2-(2-methoxy-ethyl)-nonadec-4-enoic acid] | 0.00215 | 1.44 | > 1 | 11.8 | 16.2 | 1.37 | 24.4 | 12.5 | 0.51 | – | – | – | –
3 | CCCCCCCC(F)(F)CCCCCC/C=C/[C@H](C(=O)N[C@@H](Cc1ccc(OCCCC)cc1)C(=O)OC)[C@@](O)(CCOC)C(=O)OCc1oc(=O)oc1C [No. 6808755, (5-methyl-2-oxo-[1,3]dioxol-4-yl)methyl (E)-(2S,3S)-3-[(S)-2-(4-butoxy-phenyl)-1-methoxycarbonyl-ethylcarbamoyl]-12,12-difluoro-2-hydroxy-2-(2-methoxy-ethyl)-nonadec-4-enoate] | – | – | – | – | – | – | – | – | – | ≥ 100 | ≥ 100 | significantly higher exposure of the liver to the active drugs | –
4 | CCCCCCCC(F)(F)CCCCCC/C=C/[C@H](C(=O)N[C@@H](Cc1ccc(OCCCC)cc1)C(=O)OC)[C@@](O)(CCOC)C(=O)OC [No. 6809532, Methyl (E)-(2S,3S)-3-[(S)-2-(4-butoxy-phenyl)-1-methoxycarbonyl-ethylcarbamoyl]-12,12-difluoro-2-hydroxy-2-(2-methoxy-ethyl)-nonadec-4-enoate, reference compound] | – | – | – | – | – | – | – | – | – | – | – | – | hardly detected
5 | CCCCCCCC(F)(F)CCCCCC/C=C/[C@H](C(=O)N[C@@H](Cc1ccc(OCCCC)cc1)C(=O)OC)[C@@](O)(CCOC)C(=O)OCC(=O)OC [No. 6811559, Methoxycarbonylmethyl (E)-(2S,3S)-3-[(S)-2-(4-butoxy-phenyl)-1-methoxycarbonyl-ethylcarbamoyl]-12,12-difluoro-2-hydroxy-2-(2-methoxy-ethyl)-nonadec-4-enoate, reference compound] | – | – | – | – | – | – | – | – | – | – | – | – | hardly detected
